According to ChEMBL document CHEMBL1201862, “PubChem BioAssay data set” (2004):
Activity calls are given as the source filed them.

How the values were obtained:
[1] = THP-1 cell cytotoxicity, dose response, cytotoxicity control for non-replicating M. tuberculosis project (AID 489025); assay type: functional
Beta-lactamase [2] = biological target: Beta-lactamase (Pseudomonas aeruginosa, UniProt Q79MP6);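 further: biochemical dose-response test of metallo-beta-lactamase enzyme inhibition, read out by epi-absorbance; purified recombinant IMP-1 metallo-beta-lactamase with nitrocefin as substrate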
Sequence of Beta-lactamase (Pseudomonas aeruginosa, UniProt Q79MP6) (Q79MP6 whole entry): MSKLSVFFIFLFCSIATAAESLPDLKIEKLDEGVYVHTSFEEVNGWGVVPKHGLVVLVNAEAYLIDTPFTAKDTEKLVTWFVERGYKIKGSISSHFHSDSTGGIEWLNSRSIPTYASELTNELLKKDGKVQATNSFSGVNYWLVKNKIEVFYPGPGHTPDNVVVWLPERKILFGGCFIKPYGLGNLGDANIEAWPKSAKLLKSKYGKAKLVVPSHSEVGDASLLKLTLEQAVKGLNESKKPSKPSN

Beta-lactamase [3] = biological target: Beta-lactamase (Salmonella choleraesuis (strain SC-B67), UniProt Q5J463)
Sequence of Beta-lactamase (Salmonella choleraesuis (strain SC-B67), UniProt Q5J463) (Q5J463 whole entry): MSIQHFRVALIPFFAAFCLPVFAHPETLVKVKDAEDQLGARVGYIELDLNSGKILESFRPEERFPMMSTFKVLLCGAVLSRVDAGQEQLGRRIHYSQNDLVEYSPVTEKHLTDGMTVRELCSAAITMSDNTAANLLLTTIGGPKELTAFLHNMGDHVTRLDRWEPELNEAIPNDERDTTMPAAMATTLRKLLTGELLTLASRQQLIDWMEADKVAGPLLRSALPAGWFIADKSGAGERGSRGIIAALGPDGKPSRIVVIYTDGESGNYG

[4] = biological target: T1, DNA repair and recombination protein RAD54-like (Homo sapiens, UniProt Q92698); assay: RAD54 Holliday junction migration blockers – biochemical, fluorescence, cherry-picked samples, dose series, confirmation (AID 651657); assay type: functional
T1 sequence (Q92698 whole entry): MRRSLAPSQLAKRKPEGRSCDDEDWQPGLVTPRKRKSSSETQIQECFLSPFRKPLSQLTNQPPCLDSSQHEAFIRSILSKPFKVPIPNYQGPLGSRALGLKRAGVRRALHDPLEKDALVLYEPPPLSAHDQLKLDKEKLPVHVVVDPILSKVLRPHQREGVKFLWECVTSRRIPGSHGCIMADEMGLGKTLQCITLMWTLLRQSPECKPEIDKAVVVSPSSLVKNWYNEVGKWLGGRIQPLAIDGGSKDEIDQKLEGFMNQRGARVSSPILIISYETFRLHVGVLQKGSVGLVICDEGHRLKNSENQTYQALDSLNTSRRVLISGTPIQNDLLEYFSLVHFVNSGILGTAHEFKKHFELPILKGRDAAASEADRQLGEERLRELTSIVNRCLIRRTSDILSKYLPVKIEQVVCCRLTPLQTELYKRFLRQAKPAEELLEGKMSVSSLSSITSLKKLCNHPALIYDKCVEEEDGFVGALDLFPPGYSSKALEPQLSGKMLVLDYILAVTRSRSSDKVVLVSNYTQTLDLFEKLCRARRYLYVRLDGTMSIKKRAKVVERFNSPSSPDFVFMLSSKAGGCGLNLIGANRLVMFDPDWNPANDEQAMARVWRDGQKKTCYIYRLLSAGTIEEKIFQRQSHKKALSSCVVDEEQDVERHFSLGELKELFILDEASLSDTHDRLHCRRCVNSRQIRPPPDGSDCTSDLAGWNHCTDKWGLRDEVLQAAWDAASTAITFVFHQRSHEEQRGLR

[5] = acridine orange displacement from DNA – biochemical, fluorescence polarization, cherry-pick, artefact control for RAD54 inhibitor project, dose response (AID 651673); assay type: functional
[6] = biological target: T2, DNA repair protein RAD52 homolog (Homo sapiens, UniProt P43351); assay type: functional, biochemical
T2 sequence (P43351 whole entry): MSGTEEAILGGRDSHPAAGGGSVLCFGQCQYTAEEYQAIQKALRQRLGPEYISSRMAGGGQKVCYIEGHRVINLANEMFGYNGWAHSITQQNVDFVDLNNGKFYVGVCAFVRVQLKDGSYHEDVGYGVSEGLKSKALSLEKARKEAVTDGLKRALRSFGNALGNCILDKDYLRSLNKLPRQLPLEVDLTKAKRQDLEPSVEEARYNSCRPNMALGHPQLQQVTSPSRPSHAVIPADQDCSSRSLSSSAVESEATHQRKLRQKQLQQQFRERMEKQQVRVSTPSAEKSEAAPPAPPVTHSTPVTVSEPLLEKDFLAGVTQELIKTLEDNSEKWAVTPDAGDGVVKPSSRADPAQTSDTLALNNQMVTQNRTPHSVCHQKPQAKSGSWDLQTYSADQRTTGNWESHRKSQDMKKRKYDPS

[7] = biological target: T3, Sentrin-specific protease 1 (Homo sapiens, UniProt Q9P0U3); assay: Dose response confirmation of small molecule inhibitors of the catalytic domain of the SUMO protease, SENP1 in a FRET assay.; assay type: functional; conditions: read-out: IC50_Mean
T3 sequence (Q9P0U3 whole entry, the tested form may be a part): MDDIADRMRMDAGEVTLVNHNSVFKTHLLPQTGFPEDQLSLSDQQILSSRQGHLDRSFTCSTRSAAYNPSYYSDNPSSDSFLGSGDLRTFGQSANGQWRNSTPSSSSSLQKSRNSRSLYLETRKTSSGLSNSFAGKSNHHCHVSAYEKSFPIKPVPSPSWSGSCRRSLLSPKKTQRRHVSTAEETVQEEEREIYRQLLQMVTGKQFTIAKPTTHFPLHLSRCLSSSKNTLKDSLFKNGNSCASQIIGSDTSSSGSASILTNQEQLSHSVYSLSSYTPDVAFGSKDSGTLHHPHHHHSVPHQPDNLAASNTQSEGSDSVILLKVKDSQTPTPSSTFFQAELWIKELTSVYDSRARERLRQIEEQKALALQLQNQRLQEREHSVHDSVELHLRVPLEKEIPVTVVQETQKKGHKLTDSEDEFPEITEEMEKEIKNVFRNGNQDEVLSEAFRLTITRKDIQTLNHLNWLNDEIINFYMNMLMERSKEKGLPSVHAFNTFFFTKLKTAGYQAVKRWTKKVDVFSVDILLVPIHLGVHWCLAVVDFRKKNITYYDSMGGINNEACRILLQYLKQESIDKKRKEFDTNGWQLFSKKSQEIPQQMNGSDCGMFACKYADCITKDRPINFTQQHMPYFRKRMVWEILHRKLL

[8] = biological target: T3, Sentrin-specific protease 1; assay: SENP1 catalytic domain blockers, concentration series – biochemical, kinetic FRET, dose response (AID 651697); assay type: functional; conditions: read-out: IC50_Mean
cells = assay type: functional
Vero = assay: viability loss in Vero cells – cell-based, plate reader, cherry-pick samples, cytotoxicity control, dose response (AID 687020); assay type: functional; conditions: Chlorocebus sabaeus
[9] = biological target: T4, Methionyl-tRNA synthetase, putative (Trypanosoma brucei brucei, UniProt Q38C91); assay type: functional, Trypanosoma brucei brucei strain 927/4 GUTat10.1
T4 sequence (Q38C91 whole entry): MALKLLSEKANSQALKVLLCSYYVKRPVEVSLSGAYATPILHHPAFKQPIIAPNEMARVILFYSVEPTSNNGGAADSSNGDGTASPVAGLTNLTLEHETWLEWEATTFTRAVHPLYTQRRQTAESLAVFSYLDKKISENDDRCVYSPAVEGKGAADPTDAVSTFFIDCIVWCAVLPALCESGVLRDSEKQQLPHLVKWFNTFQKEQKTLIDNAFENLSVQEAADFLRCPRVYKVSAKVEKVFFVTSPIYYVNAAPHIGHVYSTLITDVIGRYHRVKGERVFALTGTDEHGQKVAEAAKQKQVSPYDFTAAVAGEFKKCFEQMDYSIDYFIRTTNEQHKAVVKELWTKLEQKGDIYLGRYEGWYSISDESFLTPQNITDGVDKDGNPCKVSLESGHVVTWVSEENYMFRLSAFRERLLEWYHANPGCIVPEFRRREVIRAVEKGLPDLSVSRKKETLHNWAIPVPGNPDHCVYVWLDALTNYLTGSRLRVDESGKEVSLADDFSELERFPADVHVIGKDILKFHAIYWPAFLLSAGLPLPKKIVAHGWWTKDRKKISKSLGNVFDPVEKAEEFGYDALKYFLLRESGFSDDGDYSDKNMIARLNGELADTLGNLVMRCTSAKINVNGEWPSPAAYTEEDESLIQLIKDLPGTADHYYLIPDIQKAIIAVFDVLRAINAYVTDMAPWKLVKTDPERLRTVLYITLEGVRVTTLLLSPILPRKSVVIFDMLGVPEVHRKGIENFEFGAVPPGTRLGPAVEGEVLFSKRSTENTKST

[10] = biological target: T4, Methionyl-tRNA synthetase, putative; assay type: functional, Trypanosoma brucei brucei strain 927/4 GUTat10.1; remark: listed apart in the source
[11] = Counterscreen for inhibitors of Trypanosoma brucei methionyl tRNA synthetase (MetRS): Luminescence-based cell-based high throughput dose response assay to identify compounds that are cytotoxic to Jurkat human T lymphocyte cells.; assay type: functional

N=C1/C(=C\c2coc3ccccc3c2=O)C(=O)N=C2SC=CN12
CC50 [1]: > 40 µM (active)
IC50 (Beta-lactamase [2]): 36.4 µM (inactive)
IC50 (Beta-lactamase [3]): > 59.6 µM (inactive)

c1cncc(Nc2c3ccccc3nc3ccccc23)c1
AC50 [4]: 12.8 µM (active)
AC50 [5]: 49.5 µM (active)
AC50 [6]: 7.23 µM (active)

O=C(Nc1nccs1)c1cc2cc(Cl)ccc2oc1=O
IC50 [7]: 3.49 µM (active)
IC50 [8]: 1.84 µM (active)
IC50 (cells): 1.37 µM (active)

COc1cc(C)ccc1OCc1cc(C(=O)NCCN2CCCC(O)C2)no1 (stereo not drawn)
AC50 (Vero): 30 µM (active)

Cc1cc(C)c(O)c(-c2cc(C(=O)NCCc3ccc(S(N)(=O)=O)cc3)[nH]n2)c1
IC50 [9]: 70.9 µM (inactive)
IC50 [10]: 39.5 µM (inactive)
IC50 [11]: 83.3 µM (inactive)
